Data from patent publication US20090004683A1, “Indicator Agent for Noninflammatory Stress Response and Use Thereof” (priority 2004, published 2009).

Key:
[1] = tested on: Primary culture human skin keratinocytes; test: IL-18 release from keratinocytes with UV-B ray irradiation; format: cell-based; conditions: 100 mJ UV-B, SOD 1-20 U/ml or water-soluble vitamin E 100 nM-10 mM/ml
Experimental: Primary culture human skin keratinocytes (keratinocytes: purchased from CAMBREX Company) were cultured in a basal medium for keratinocytes contained in petri dishes for cell culture 6 cm in diameter at 1.0-2.0×10^6/dish. This was irradiated with 100 mJ of ultraviolet B rays (UV-B rays), after which the cells were cultured for 1 hour, after which the medium was collected, and the concentration of IL-18 protein in the medium was measured. Also, after the UV-B ray treatment, the cells were cultured in a medium containing SOD (1, 2.5, 5, 10, 20 U/ml), which is an active oxygen eliminator, or water-soluble vitamin E (100 nM, 1, 2.5, 5, 10 mM/ml), and the concentration of IL-18 protein in the medium was measured. In the keratinocytes, the activation and release of IL-18 by the active oxygen molecular species were observed. Furthermore, these were suppressed by SOD, which is an active oxygen eliminator, or by vitamin E, which neutralizes active oxygen, dose-dependently (FIGS. 7C and 7D).

Brain astrocytes = test: IL-18 release from astrocytes with paraquat stimulation; format: cell-based, mouse
Experimental: Brain astrocytes isolated from the mouse neonatal brain by the method of Yang et al. (Yang P, Hernandez M R. Brain Res Brain Res Protoc. 2003 October; 12(2):67-76) were prepared at 1.5-2.0×10^6/ml. This was cultured in Dulbecco's minimum essential medium containing 100 nM of paraquat, which is an active oxygen generator, for 1 hour, after which the medium was exchanged with a paraquat-free medium. The cells were further cultured for 3 hours, after which the medium was collected, and the concentration of IL-18 protein in the medium was measured.

Abdominal macrophages = test: IL-18 release from macrophages with paraquat stimulation; format: cell-based, mouse; conditions: 100 nM paraquat 15 minutes, SOD 1-20 U/ml
Experimental: Abdominal macrophages isolated from mice by the method of Hamilton et al. (Hamilton T A, Weiel J E, Adams D O., J. Immunol. 1984 May; 132(5):2285-90) were cultured in Dulbecco's minimum essential medium at 1.0-2.0×10^5/dish. The medium was exchanged with the aforementioned medium containing 100 nM of paraquat, which is an active oxygen generator, and the cells were cultured for 15 minutes, after which the medium was exchanged with a paraquat-free medium, and the cells were further cultured for 3 hours, after which the medium was collected, and the concentration of IL-18 protein in the medium was measured.

Brain microglia = test: IL-18 release from microglia with paraquat stimulation; format: cell-based, mouse
Experimental: Brain microglia isolated from the mouse neonatal brain by the method of Hassan et al. (Hassan N F, Rifat S, Campbell D E, McCawley L J, Douglas S D. J. Leukoc Biol. 1991 July; 50(1):86-92) were cultured at 1.5-2.0×10^6/ml. This was cultured in Dulbecco's minimum essential medium containing 100 nM of paraquat, which is an active oxygen generator, for 1 hour, after which the medium was exchanged with a paraquat-free medium. After further cultivation for 3 hours, the medium was collected, and the concentration of IL-18 protein in the medium was measured.

Synovial membrane tissue = test: IL-18 release from synovial membrane tissue with paraquat stimulation; format: cell-based, human; conditions: synovial membrane tissue of articular rheumatism patient, 100 nM paraquat 15 minutes; SOD 1-20 U/ml
Experimental: Synovial membrane tissue collected from the articular synovial membrane at a lesion site of an articular rheumatism patient was subjected to tissue culture in an RPMI-1640 medium containing 10% fetal bovine serum by the method of Tanaka et al. (Tanaka M, Harigai M, Kawaguchi Y, Ohta S, Sugiura T, Takagi K, Ohsako-Higami S, Fukasawa C, Hara M, Kamatani N., J. Rheumatol. 2001 August; 28(8):1779-87). The medium was exchanged with the aforementioned medium containing 100 nM of paraquat, which is an active oxygen generator, and the cells were cultured for 15 minutes, after which the medium was exchanged with a paraquat-free medium, and the cells were further cultured for 1 hour, after which the medium was collected, and the concentration of IL-18 protein in the medium was measured.

[2] = tested on: Primary culture human skin keratinocytes; test: IL-18 release from keratinocytes with paraquat stimulation; format: cell-based
Experimental: Primary culture human skin keratinocytes (keratinocytes) were cultured in a basal medium for keratinocytes contained in petri dishes for cell culture 6 cm in diameter at 1.0-2.0×10^6/dish. This was cultured in the aforementioned medium containing 1 μM of paraquat, which is an active oxygen generator, for 15 minutes, after which the medium was exchanged with a paraquat-free medium, and the cells were further cultured for 1 hour, after which the medium was collected, and the concentration of IL-18 protein in the medium was measured.

[3] = tested on: Primary culture human renal proximal tubular epithelial cells; test: IL-18 release from renal tubular epithelial cells with paraquat stimulation; format: cell-based
Experimental: Primary culture human renal proximal tubular epithelial cells (purchased from CAMBREX Company) were cultured in a basal medium for renal tubular cells: contents 10 μg/ml hEGF (recombinant human epithelial cell growth factor) 0.5 ml, 5 mg/ml insulin 0.5 ml, 0.5 mg/ml hydrocortisone 0.5 ml, FBS (fetal bovine serum) 2.5 ml, 0.5 mg/ml epinephrine 0.5 ml, 6.5 μg/ml triiodothyronine 0.5 ml, 10 mg/ml transferrin 0.5 ml, 50 mg/ml gentamycin, 50 μg/ml amphotericin-B 0.5 ml), in petri dishes for cell culture 6 cm in diameter at 1.0-2.0×10^6/dish. This was cultured in the aforementioned medium containing 100 nM of paraquat, which is an active oxygen generator, for 15 minutes, after which the medium was exchanged with the same but paraquat-free medium. After the cells were further cultured for 1 hour, the medium was collected, and the concentration of IL-18 protein in the medium was measured.

LH = test: Plasma LH after IL-18 administration; format: in vivo, mouse; conditions: C57B/6 mice, 1.5 μg IL-18 intravenously, 1 hour after administration; FIG. 13C
Experimental: (§1) 1.5 μg of IL-18 prepared by genetic recombination technology was intravenously injected to C57B/6 mice, and thereafter ACTH, FSH and LH levels in blood were examined. […] FIGS. 13B and 13C show FSH and LH levels in plasma collected from mice 1 hour after IL-18 administration. It was shown that the concentrations of FSH and LH in plasma rose with the administration of IL-18.

FSH = test: Plasma FSH after IL-18 administration; format: in vivo, mouse; conditions: C57B/6 mice, 1.5 μg IL-18 intravenously, 1 hour after administration; FIG. 13B
Experimental: as §1

ACTH = test: Blood ACTH after IL-18 administration; format: in vivo, mouse; conditions: C57B/6 mice, 1.5 μg IL-18 intravenously; FIG. 13A
Experimental: as §1

caspase-1 [4] = biological target: T1, caspase-1 (Mus musculus, UniProt P29452); test: Caspase-1 activity in the adrenal of restraint stress mice (Ac-YVAD-MCA fluorescent substrate); format: in vivo; conditions: given i.p. during restraint
T1 construct: from tissue; host or cells: mouse adrenal (homogenate)
T1 sequence (P29452 119-296 limits assumed): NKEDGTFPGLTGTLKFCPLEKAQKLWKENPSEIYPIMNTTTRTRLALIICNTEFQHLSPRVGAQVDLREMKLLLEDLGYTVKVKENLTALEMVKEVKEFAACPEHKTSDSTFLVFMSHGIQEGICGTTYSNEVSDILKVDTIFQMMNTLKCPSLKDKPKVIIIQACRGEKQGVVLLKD
T1 sequence (P29452 315-402 limits assumed): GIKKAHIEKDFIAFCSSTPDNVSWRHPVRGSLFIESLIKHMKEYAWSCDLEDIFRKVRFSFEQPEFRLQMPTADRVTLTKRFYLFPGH
Experimental: (§2) Each mouse was kept in a restrainer for 1 hour, and Ac-YVAD-CHO (200 μM/50 μl PBS(−)), Z-FA-fmk (100 μM/50 μl PBS(−)) and SB-203580 (100 μg/50 μl PBS(−) per mouse) were administered intraperitoneally. 1 and 3 hours after the start of restraint, SOD-1 (20 U) and DPI (30 μg) were administered intraperitoneally to the mouse, and samples were analyzed by Western blotting.
Caspase-1 activity in the adrenal was measured using a caspase assay kit (manufactured by BD-Pharmingen). Describing briefly, a homogenate of adrenal tissue was incubated with Ac-YVAD-MCA (acetyl-L-tyrosyl-L-valyl-L-alanyl-L-aspartic acid 4-methyl-coumaryl-7-amide), which is a fluorescent substrate for caspase-1, and the MCA leaving from the aforementioned substrate was measured using a fluorescence plate reader (excitation wavelength 380 nm, irradiation wavelength 420-460 nm).

glyoma cell line C6 = conditions: cited from earlier work
IL-18 [5] = test: Plasma IL-18 level in restraint stress mice (ELISA); format: in vivo, mouse; conditions: given i.p. during restraint (Ac-YVAD-CHO 200 μM/50 μl, Z-FA-fmk 100 μM/50 μl, SB-203580 100 μg, SOD-1 20 U, DPI 30 μg)
Experimental: For restraint stress, each mouse was kept in a restrainer (a round plastic tube 27 mm in diameter) for 1, 3 or 6 hours, and IL-18 levels were measured. Regarding the analysis of IL-6, each mouse was restrained as described above, and then housed in the starting cage for 6 hours, after which a measurement was performed.
(§3) After restraint, each mouse was anesthetized with diethyl ether, and blood was drawn into an EDTA-containing tube. Plasma was separated by centrifugation at 4° C. and 10000×g for 10 minutes, and stored at −80° C. IL-18 and IL-6 were analyzed by ELISA using Quantikine™ immunoassay kit (R&D Systems) and OptEIA™ (BD-Pharmingen), respectively.
(§4) The anti-ACTH antiserum (50 μl, 1:1), dexamethasone (1 ng/50 μl PBS(−)) or the anti-IL-18 antibody (50 μl, 1:1) was administered intraperitoneally to each mouse; after 10 minutes elapsed, the animal was kept in a restraint tube for 6 hours. Synthetic ACTH (250 μg/50 μl PBS(−)) was injected to the left leg; after 6 hours elapsed, the mice were subjected to the experiment.
as §2

procaspase-11 = test: Procaspase-11 protein in the adrenal of restraint stress mice (Western blotting); format: in vivo, mouse; conditions: given i.p. during restraint
Experimental: as §2
(§5) Western blot analysis of IL-18 and phosphorylated P38MAP kinase in adrenal tissue was performed as described below. The adrenal tissue was homogenized in an immunoprecipitation (IP) buffer solution (50 mM Tris pH 7.4, 150 mM NaCl, 0.5% NP-40 and 0.5% sodium deoxycholate) containing a protease inhibitor mixture (manufactured by Roche Diagnostics) using a Polytron homogenizer. […] The aforementioned membrane was incubated with an antibody (IL-18, phosphorylated (Thr180/Tyr182) P38 MAP kinase, caspase-1 or caspase-11), and the reacted protein was detected using an ECL plus system (manufactured by Amersham biosciences). Procaspase-11 and activated P38 MAP kinase were quantified using a Science Lab 99 image analysis system (manufactured by Fujifilm).

IL-18 [6] = test: IL-18 in plasma and adrenal after administration of synthetic ACTH; format: in vivo, mouse; conditions: 250 μg injected to the left leg, after 6 hours, no restraint
Experimental: as §3, §4

caspase-1 [7] = test: Procaspase-1 in the adrenal after ACTH administration (Western blotting); format: in vivo, mouse; conditions: FIG. 2A lane 2
Experimental: as §4, §5

vitamin E
activation and release of IL-18 into the medium [1]: suppressed | activation and release of IL-18 into the medium (Brain astrocytes): suppressed | activation and release of IL-18 into the medium (Abdominal macrophages): suppressed | activation and release of IL-18 into the medium (Brain microglia): suppressed | activation and release of IL-18 into the medium (Synovial membrane tissue): suppressed | activation and release of IL-18 into the medium [2]: suppressed | activation and release of IL-18 into the medium [3]: suppressed

IL-18: IL-18 prepared by genetic recombination technology
concentration of LH in plasma (LH): rose | concentration of FSH in plasma (FSH): rose | blood ACTH concentration (ACTH): rose

C[S+]([O-])c1ccc(-c2nc(-c3ccncc3)c(-c3ccc(F)cc3)[nH]2)cc1 (stereo not drawn) [SB203580]
stress-induced increase in caspase-1 activity in the adrenal (caspase-1 [4]): lower than those in control mice | activation of caspase-1 subsequent to LPS (glyoma cell line C6): suppressed | induction of caspase-11 mRNA by LPS (glyoma cell line C6): suppressed | stress-induced increase in plasma IL-18 level (IL-18 [5]): lower than those in control mice | stress-induced increase in procaspase-11 protein (procaspase-11): inhibited

ACTH: Synthetic ACTH (1-24 amino acids) purchased from Peninsula Laboratories Inc. (SYSMEHFRWGKPVGKKRRPVKVYP; Corticotropin; UniProt P01189 138-161, looked up, fragment)
plasma IL-18 level after ACTH administration (IL-18 [6]; FIG. 1D): rose, but its degree was lower than that with stress loading | IL-18 level in the adrenal after ACTH administration (IL-18 [6]; FIG. 1E): rose to the same extent as in the case of stress loading | induction of caspase-1 in the adrenal (caspase-1 [7]): induced
